Test results: patent publication US20130029962A1, “Substituted Heteroaromatic Pyrazole-Containing Carboxamide and Urea Compounds as Vanilloid Receptor Ligands” (Gruenenthal GmbH, priority 2011, published 2013)

Target: T1, vanilloid receptor 1 (VR1/TRPV1 receptor) (Homo sapiens, UniProt Q8NER1)
T1 construct: expressed in transfected cells; host or cells: CHO K1
Experiment: Functional testing on the vanilloid receptor 1 (VR1/TRPV1): FLIPR Ca2+ influx assay, displacement of capsaicin
Type: cell-based, human being
Set-up: key to mode of action at VR1/TRPV1 (AG, pAG, NE), Cap: AG=agonist; NE=no effect; pAG=partial agonist
Details: for inhibition at 5 µM: 5 μM compound, read-out: inhibition (as a percentage) at the concentration after @, Cap; for inhibition at 5 µM / mode of action at VR1/TRPV1 (AG, pAG, NE), Cap: capsaicin (Cap), human being; for Ki: capsaicin (Cap) as stimulus, Ki from IC50 by Cheng-Prusoff, read-out: (f) Ki (human being) [nM] Cap
Method: Furthermore, preference may be given to compounds according to the invention that cause a 50 percent displacement of capsaicin, which is present at a concentration of 100 nM, in a FLIPR assay with CHO K1 cells which were transfected with the human VR1 gene at a concentration of less than 2,000 nM, preferably less than 1,000 nM, particularly preferably less than 300 nM, most particularly preferably less than 100 nM, even more preferably less than 75 nM, additionally preferably less than 50 nM, most preferably less than 10 nM.
In the process, the Ca^2+ influx is quantified in the FLIPR assay with the aid of a Ca^2+-sensitive dye (type Fluo-4, Molecular Probes Europe BV, Leiden, the Netherlands) in a fluorescent imaging plate reader (FLIPR, Molecular Devices, Sunnyvale, USA), as described hereinafter. […]
The number of cells in the suspension is set to 3×10^5 per mL and 150 μL of this suspension are in each case introduced into a recess in the cell culture plates coated as described hereinbefore. In the incubator the plates are left for two to three days at 37° C., 5% by volume of CO2 and 95% relative humidity. Subsequently, the cells are loaded with 2 μM of Fluo-4 and 0.01% by volume of Pluronic F127 (Molecular Probes Europe BV, Leiden, the Netherlands) in HBSS buffer (Hank's buffered saline solution, Gibco Invitrogen GmbH, Karlsruhe, Germany) for 30 min at 37° C., washed 3 times with HBSS buffer and after further incubation for 15 minutes at room temperature used for Ca^2+ measurement in a FLIPR assay. The Ca^2+-dependent fluorescence is in this case measured before and after the addition of substances (λex=488 nm, λem=540 nm). Quantification is carried out by measuring the highest fluorescence intensity (FC, fluorescence counts) over time.
The FLIPR protocol consists of 2 substance additions. First the compounds to be tested (10 μM) are pipetted onto the cells and the Ca^2+ influx is compared with the control (capsaicin 10 μM). This provides the result in % activation based on the Ca^2+ signal after the addition of 10 μM of capsaicin (CP). After 5 minutes' incubation, 100 nM of capsaicin are applied and the Ca^2+ influx is also determined. Desensitising agonists and antagonists lead to suppression of the Ca^2+ influx. The % inhibition is calculated compared to the maximum achievable inhibition with 10 μM of capsazepine. Triple analyses (n=3) are carried out and repeated in at least 3 independent experiments (N=4).
Starting from the percentage displacement caused by different concentrations of the compounds to be tested of general formula I, IC50 inhibitory concentrations which cause a 50-percent displacement of capsaicin were calculated. Ki values for the test substances were obtained by conversion by means of the Cheng-Prusoff equation (Cheng, Prusoff; Biochem. Pharmacol. 22, 3099-3108, 1973).
The affinity of the compounds according to the invention for the vanilloid receptor 1 (VR1/TRPV1 receptor) was determined as described above (pharmacological method I).

T1 sequence (Q8NER1 whole entry): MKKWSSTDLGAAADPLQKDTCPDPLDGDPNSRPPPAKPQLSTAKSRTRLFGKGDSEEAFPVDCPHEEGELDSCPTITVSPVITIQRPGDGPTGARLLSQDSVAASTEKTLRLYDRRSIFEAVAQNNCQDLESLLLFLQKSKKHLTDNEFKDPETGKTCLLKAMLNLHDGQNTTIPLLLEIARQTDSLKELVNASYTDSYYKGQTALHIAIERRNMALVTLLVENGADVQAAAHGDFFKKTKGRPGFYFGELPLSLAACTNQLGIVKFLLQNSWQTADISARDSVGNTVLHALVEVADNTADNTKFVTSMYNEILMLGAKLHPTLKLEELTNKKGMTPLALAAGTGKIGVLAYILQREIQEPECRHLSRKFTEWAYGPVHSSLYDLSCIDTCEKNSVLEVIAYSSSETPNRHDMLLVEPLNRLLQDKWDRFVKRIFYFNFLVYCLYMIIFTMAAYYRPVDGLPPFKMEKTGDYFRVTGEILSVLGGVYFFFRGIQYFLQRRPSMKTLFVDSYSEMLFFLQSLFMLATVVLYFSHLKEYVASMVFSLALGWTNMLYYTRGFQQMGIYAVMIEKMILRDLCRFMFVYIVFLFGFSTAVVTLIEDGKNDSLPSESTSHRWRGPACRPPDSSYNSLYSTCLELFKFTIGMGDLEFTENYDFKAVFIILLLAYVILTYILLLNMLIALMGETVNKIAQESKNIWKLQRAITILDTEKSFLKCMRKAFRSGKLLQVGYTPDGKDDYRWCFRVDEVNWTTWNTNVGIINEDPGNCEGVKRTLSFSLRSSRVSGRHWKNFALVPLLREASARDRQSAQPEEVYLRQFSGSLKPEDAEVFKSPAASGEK

Structure (SMILES)	inhibition at 5 µM [%]	mode of action at VR1/TRPV1 (AG, pAG, NE), Cap	Ki [nM]
O=C(Cc1ccccn1)NCc1cc(C(F)(F)F)nn1-c1cccc(Cl)c1 [Example 1, N-((1-(3-chlorophenyl)-3-(trifluoromethyl)-1H-pyrazol-5-yl)methyl)-2-(pyridin-2-yl)acetamide]	31	–	–
CC(C(=O)NCc1cc(C(C)(C)C)nn1-c1cccc(Cl)c1)c1ccccn1 (stereo not shown) [Example 2, N-((3-tert-butyl-1-(3-chlorophenyl)-1H-pyrazol-5-yl)methyl)-2-(pyridin-2-yl)propanamide]	89	AG	–
CC(C(=O)NCc1cc(C(F)(F)F)nn1-c1cccc(Cl)c1)c1ccccn1 (stereo not shown) [Example 3, N-((1-(3-chlorophenyl)-3-(trifluoromethyl)-1H-pyrazol-5-yl)methyl)-2-(pyridin-2-yl)propanamide]	35	–	–
CC(C)(C)c1cc(CNC(=O)Nc2ccccn2)n(-c2cccc(Cl)c2)n1 [Example 4, 1-((3-tert-butyl-1-(3-chlorophenyl)-1H-pyrazol-5-yl)methyl)-3-(pyridin-2-yl)urea]	–	–	47
O=C(NCc1cc(C(F)(F)F)nn1-c1cccc(Cl)c1)Nc1ccccn1 [Example 5, 1-((1-(3-chlorophenyl)-3-(trifluoromethyl)-1H-pyrazol-5-yl)methyl)-3-(pyridin-2-yl)urea]	29	–	–
CC(C)(C)c1cc(CNC(=O)Cc2cccnc2)n(-c2cccc(Cl)c2)n1 [Example 6, N-((3-tert-butyl-1-(3-chlorophenyl)-1H-pyrazol-5-yl)methyl)-2-(pyridin-3-yl)acetamide]	89	AG	–
O=C(Cc1cccnc1)NCc1cc(C(F)(F)F)nn1-c1cccc(Cl)c1 [Example 7, N-((1-(3-chlorophenyl)-3-(trifluoromethyl)-1H-pyrazol-5-yl)methyl)-2-(pyridin-3-yl)acetamide]	51	–	–
CC(C(=O)NCc1cc(C(F)(F)F)nn1-c1cccc(Cl)c1)c1cccnc1 (stereo not shown) [Example 8, N-((1-(3-chlorophenyl)-3-(trifluoromethyl)-1H-pyrazol-5-yl)methyl)-2-(pyridin-3-yl)propanamide]	–	–	13
O=C(NCc1cc(C(F)(F)F)nn1-c1cccc(Cl)c1)Nc1cccnc1 [Example 9, 1-((1-(3-chlorophenyl)-3-(trifluoromethyl)-1H-pyrazol-5-yl)methyl)-3-(pyridin-3-yl)urea]	72	AG	–
CC(C)(C)c1cc(CNC(=O)Cc2ccncc2)n(-c2cccc(Cl)c2)n1 [Example 10, N-((3-tert-butyl-1-(3-chlorophenyl)-1H-pyrazol-5-yl)methyl)-2-(pyridin-4-yl)acetamide]	90	AG	–
O=C(Cc1ccncc1)NCc1cc(C(F)(F)F)nn1-c1cccc(Cl)c1 [Example 11, N-((1-(3-chlorophenyl)-3-(trifluoromethyl)-1H-pyrazol-5-yl)methyl)-2-(pyridin-4-yl)acetamide]	79	AG	–
O=C(NCc1cc(C(F)(F)F)nn1-c1cccc(Cl)c1)Nc1ccncc1 [Example 12, 1-((1-(3-chlorophenyl)-3-(trifluoromethyl)-1H-pyrazol-5-yl)methyl)-3-(pyridin-4-yl)urea]	85	AG	–
O=C(Cc1ccncn1)NCc1cc(C(F)(F)F)nn1-c1cccc(Cl)c1 [Example 13, N-((1-(3-chlorophenyl)-3-(trifluoromethyl)-1H-pyrazol-5-yl)methyl)-2-(pyrimidin-4-yl)acetamide]	30	–	–
CC(C)(C)c1cc(CNC(=O)Cc2cnccn2)n(-c2cccc(Cl)c2)n1 [Example 14, 1N-((3-tert-butyl-1-(3-chlorophenyl)-1H-pyrazol-5-yl)methyl)-2-(pyrazin-2-yl)acetamide]	–	pAG	–
O=C(NCc1cc(C(F)(F)F)nn1-c1cccc(Cl)c1)Nc1ccnnc1 [Example 15, 1-((1-(3-chlorophenyl)-3-(trifluoromethyl)-1H-pyrazol-5-yl)methyl)-3-(pyridazin-4-yl)urea]	–	AG	–
O=C(Cc1cncnc1)NCc1cc(C(F)(F)F)nn1-c1cccc(Cl)c1 [Example 16, N-((1-(3-chlorophenyl)-3-(trifluoromethyl)-1H-pyrazol-5-yl)methyl)-2-(pyrimidin-5-yl)acetamide]	–	–	77
O=C(Cc1ccc(Cl)nc1)NCc1cc(C(F)(F)F)nn1-c1cccc(Cl)c1 [Example 17, N-((1-(3-chlorophenyl)-3-(trifluoromethyl)-1H-pyrazol-5-yl)methyl)-2-(6-chloropyridin-3-yl)acetamide]	–	–	29
CC(C)(C)c1cc(CNC(=O)Nc2ccc(C(N)=O)nc2)n(-c2cccc(Cl)c2)n1 [Example 25, 5-(3-((3-tert-butyl-1-(3-chlorophenyl)-1H-pyrazol-5-yl)methyl)ureido)picolinamide]	–	–	31
CC(C(=O)NCc1cc(C(F)(F)F)nn1-c1cccc(Cl)c1)c1ccc(CNS(C)(=O)=O)nc1 (stereo not shown) [Example 27, N-((1-(3-chlorophenyl)-3-(trifluoromethyl)-1H-pyrazol-5-yl)methyl)-2-(6-(methylsulfonamidomethyl)pyridin-3-yl)propanamide]	–	–	61
CC(C(=O)NCc1cc(C(F)(F)F)nn1-c1cccc(Cl)c1)c1ccc(CO)nc1 (stereo not shown) [Example 30, N-((1-(3-chlorophenyl)-3-(trifluoromethyl)-1H-pyrazol-5-yl)methyl)-2-(6-(hydroxymethyl)pyridin-3-yl)propanamide]	–	–	1

Other lines, results leading:

inhibition at 5 µM [%]	mode of action at VR1/TRPV1 (AG, pAG, NE), Cap	Ki [nM]	Structure (SMILES)
–	–	39	O=C(NCc1cc(C(F)(F)F)nn1-c1cccc(Cl)c1)Nc1cncc(F)c1 [Example 18, 1-((1-(3-chlorophenyl)-3-(trifluoromethyl)-1H-pyrazol-5-yl)methyl)-3-(5-fluoropyridin-3-yl)urea]
45	–	–	Cc1ncc(NC(=O)NCc2cc(C(F)(F)F)nn2-c2cccc(Cl)c2)cn1 [Example 19, 1-((1-(3-chlorophenyl)-3-(trifluoromethyl)-1H-pyrazol-5-yl)methyl)-3-(2-methylpyrimidin-5-yl)urea]
–	–	43	CS(=O)(=O)CCc1ccc(NC(=O)NCc2cc(C(F)(F)F)nn2-c2cccc(Cl)c2)cn1 [Example 21, 1-((1-(3-chlorophenyl)-3-(trifluoromethyl)-1H-pyrazol-5-yl)methyl)-3-(6-(2-(methylsulfonyl)ethyl)pyridin-3-yl)urea]
–	–	28	CC(C)(C)c1cc(CNC(=O)Nc2cnc(CCS(C)(=O)=O)c(F)c2)n(-c2cccc(Cl)c2)n1 [Example 22, 1-((3-tert-butyl-1-(3-chlorophenyl)-1H-pyrazol-5-yl)methyl)-3-(5-fluoro-6-(2-(methylsulfonyl)ethyl)pyridin-3-yl)urea]
–	–	29	CS(=O)(=O)CCc1ncc(NC(=O)NCc2cc(C(F)(F)F)nn2-c2cccc(Cl)c2)cc1F [Example 23, 1-((1-(3-chlorophenyl)-3-(trifluoromethyl)-1H-pyrazol-5-yl)methyl)-3-(5-fluoro-6-(2-(methylsulfonyl)ethyl)pyridin-3-yl)urea]
–	–	46	CS(=O)(=O)CCc1ncc(NC(=O)NCc2cc(C3CC3)nn2-c2cccc(Cl)c2)cc1F [Example 24, 1-((1-(3-chlorophenyl)-3-cyclopropyl-1H-pyrazol-5-yl)methyl)-3-(5-fluoro-6-(2-(methylsulfonyl)ethyl)pyridin-3-yl)urea]
44	–	–	NC(=O)c1ccc(NC(=O)NCc2cc(C(F)(F)F)nn2-c2cccc(Cl)c2)cn1 [Example 26, 5-(3-((1-(3-chlorophenyl)-3-(trifluoromethyl)-1H-pyrazol-5-yl)methyl)ureido)picolinamide]
–	–	32	O=C(NCc1cc(C(F)(F)F)nn1-c1cccc(Cl)c1)Nc1ccc(CO)nc1 [Example 32, 1-((1-(3-chlorophenyl)-3-(trifluoromethyl)-1H-pyrazol-5-yl)methyl)-3-(6-(hydroxymethyl)pyridin-3-yl)urea]
